These results are taken from patent US11529358B2, “Treatment of conditions associated with myotonic dystrophy” (priority 2017, dated 2022).

In data set [1] the test system is MBNL2 knockout and DMSXL transgenic mouse models. Conditions: MBNL2 knockout and DMSXL transgenic mice; Charizanis et al. 2012; cited from earlier work.
For data set [2], the system named is DM subject. Nature of the data set: Clinical treatment of hypersomnia and cognitive deficits in DM subjects. The data set is classed as in vivo, human.
Data set [3] concerns the target GABRG2S-containing receptors in HEK293T cells (Homo sapiens, UniProt P14867+P18507). Nature of the data set: Patch clamp electrophysiology with DM subject CSF in HEK293T cells. To be noted: CSF from DM subject 2, with GABA; clarithromycin added.
The subject of data set [4] is DM subject. The experiment in a line: Multidimensional Fatigue Inventory, self-reported. The data set is classed as in vivo, human. Conditions: additional DM subject; ON treatment: flumazenil 12-18 mg sublingual plus 12 mg topical daily, or armodafinil 250 mg QAM.
For data set [5], the system named is DM subject. The experiment in a line: Fatigue severity scale, self-reported. Conditions: additional DM subject; ON treatment: flumazenil 12-18 mg sublingual plus 12 mg topical daily, or armodafinil 250 mg QAM. Format: in vivo, human.
For data set [6], the system named is DM subject. Nature of the data set: Sleep inertia questionnaire, self-reported. The data set is classed as in vivo, human. Conditions: additional DM subject; ON treatment: flumazenil 12-18 mg sublingual plus 12 mg topical daily, or armodafinil 250 mg QAM.
The subject of data set [7] is DM subject. Nature of the data set: Functional Outcomes of sleep, self-reported. The data set is classed as in vivo, human. Conditions: additional DM subject; ON treatment: flumazenil 12-18 mg sublingual plus 12 mg topical daily, or armodafinil 250 mg QAM.
Data set [8] has as its system DM subject. Nature of the data set: Hypersomnia Severity Index, self-reported. Format: in vivo, human. To be noted: additional DM subject; ON treatment: flumazenil 12-18 mg sublingual plus 12 mg topical daily, or armodafinil 250 mg QAM.
Data set [9] relates to DM subject. Nature of the data set: Owl Lark questionnaire, self-reported. Conditions: additional DM subject; ON treatment: flumazenil 12-18 mg sublingual plus 12 mg topical daily, or armodafinil 250 mg QAM. The data set is classed as in vivo, human.
Data set [10] has as its system DM subject. Nature of the data set: Beck Depression Inventory, self-reported. Conditions: additional DM subject; ON treatment: flumazenil 12-18 mg sublingual plus 12 mg topical daily, or armodafinil 250 mg QAM. Format: in vivo, human.
Data set [11] has as its system DM subject. The experiment in a line: Epworth Sleepiness Scale, self-reported.
A further data set relates to gamma 2L deficient mice. Conditions: Quinlan et al. 2000; cited from earlier work.
Data set [12] has as its system benzodiazepine binding site of GABAA receptors. Conditions: previous work, Rye et al. 2012; cited from earlier work.
Data set [13] has as its system idiopathic hypersomnia (IH) subjects. Conditions: previous work, Rye 2012; Trotti 2016; cited from earlier work.
Data set [14] concerns DM subject 1. The experiment in a line: Stanford sleepiness scale. To be noted: intravenous flumazenil, 2 different doses incl. 2.0 mg, average of 3 assessments over one hour.
The subject of data set [15] is DM subject 1. Nature of the data set: Ten-minute psychomotor vigilance task.
The mark [16] stands for this setting: additional DM subject, ON treatment: flumazenil 12-18 mg sublingual plus 12 mg topical daily, or armodafinil 250 mg QAM.

Entries after “also recorded” stand apart in the source; their conditions may differ.

Sequence of GABRG2S-containing receptors in HEK293T cells (P18507 40-467 isoform P18507-1 limits assumed): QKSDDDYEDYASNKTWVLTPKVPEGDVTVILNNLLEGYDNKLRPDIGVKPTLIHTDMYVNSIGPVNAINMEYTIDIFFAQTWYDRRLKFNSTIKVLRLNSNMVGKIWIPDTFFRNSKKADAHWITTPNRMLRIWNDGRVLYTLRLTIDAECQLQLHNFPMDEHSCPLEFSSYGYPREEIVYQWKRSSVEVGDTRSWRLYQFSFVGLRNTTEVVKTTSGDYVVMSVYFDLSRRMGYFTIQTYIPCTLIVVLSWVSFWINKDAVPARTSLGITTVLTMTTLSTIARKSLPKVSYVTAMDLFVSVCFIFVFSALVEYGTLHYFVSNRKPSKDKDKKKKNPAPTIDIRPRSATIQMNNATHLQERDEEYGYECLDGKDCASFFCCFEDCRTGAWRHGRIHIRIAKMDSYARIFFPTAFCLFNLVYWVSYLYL
Sequence of GABRG2S-containing receptors in HEK293T cells (P14867 28-456): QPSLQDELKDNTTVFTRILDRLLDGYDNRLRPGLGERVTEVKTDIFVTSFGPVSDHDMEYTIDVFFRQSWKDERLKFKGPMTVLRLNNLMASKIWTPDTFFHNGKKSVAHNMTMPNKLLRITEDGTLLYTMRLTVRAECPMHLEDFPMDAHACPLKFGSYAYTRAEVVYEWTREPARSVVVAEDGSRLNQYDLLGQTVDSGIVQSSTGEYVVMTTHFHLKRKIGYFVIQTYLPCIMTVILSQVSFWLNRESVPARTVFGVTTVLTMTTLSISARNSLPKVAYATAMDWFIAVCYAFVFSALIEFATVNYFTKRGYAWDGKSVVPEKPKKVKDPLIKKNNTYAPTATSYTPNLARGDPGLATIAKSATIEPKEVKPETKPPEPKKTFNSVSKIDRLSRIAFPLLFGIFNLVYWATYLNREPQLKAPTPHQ
Sequence of GABRG2S-containing receptors in HEK293T cells (P47870 25-512 partner limits assumed): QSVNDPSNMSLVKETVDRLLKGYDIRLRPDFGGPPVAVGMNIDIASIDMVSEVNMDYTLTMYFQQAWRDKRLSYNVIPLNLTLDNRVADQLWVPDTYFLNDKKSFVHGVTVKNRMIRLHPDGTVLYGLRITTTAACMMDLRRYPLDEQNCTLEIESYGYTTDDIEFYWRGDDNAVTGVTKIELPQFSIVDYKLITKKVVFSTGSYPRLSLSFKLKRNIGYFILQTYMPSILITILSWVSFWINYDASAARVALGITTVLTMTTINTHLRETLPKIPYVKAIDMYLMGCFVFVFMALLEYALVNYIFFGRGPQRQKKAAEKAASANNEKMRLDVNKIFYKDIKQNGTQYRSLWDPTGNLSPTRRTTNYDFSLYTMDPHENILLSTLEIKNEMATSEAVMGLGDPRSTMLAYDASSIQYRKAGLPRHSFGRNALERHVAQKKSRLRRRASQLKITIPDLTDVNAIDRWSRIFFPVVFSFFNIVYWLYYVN

In the case of `C1CCc2nnnn2CC1` [Pentylenetetrazole], the “spontaneous seizure and death in response to PTZ” value in data set [1] is “increased frequency of spontaneous seizure and death”.
Regarding `CC[C@H]1OC(=O)[C@H](C)[C@@H](O[C@H]2C[C@@](C)(OC)[C@@H](O)[C@H](C)O2)[C@H](C)[C@@H](O[C@@H]2O[C@H](C)C[C@H](N(C)C)[C@H]2O)[C@](C)(OC)C[C@@H](C)C(=O)[C@H](C)[C@@H](O)[C@]1(C)O` [clarithromycin], the “Oral clarithromycin treatment outcome” value in the data set with DM subject [2] (DM subject 1) is “discontinued use -”; in the data set with DM subject [2] (DM subject 2) it was “clinical benefit; also recorded: efficacious”. The “effect on endozepine-like activity of CSF” value in data set [3] is “reversed; also recorded: normalized”.
On to `NC(=O)C[S@@+]([O-])C(c1ccccc1)c1ccccc1` [Armodafmil, armodafinil], for which, in the data set on DM subject [4], the “General Fatigue (5-20)” value came out at 15, the “Mental Fatigue (5-20)” value is listed as 11, the “Physical Fatigue (5-20)” value came to 6 and the “Reduced Activity (5-20)” value was determined as 7. In addition, the “Reduced Motivation (5-20)” value in the data set with DM subject [4] stood at 5. Further, in the data set on DM subject [5], the “Fatigue severity scale (7-63)” value was 47. Also, in the data set with DM subject [6], the Sleep inertia questionnaire is 14.683. For the same compound, the “Functional Outcomes of sleep (5-20)” value in the data set with DM subject [7] worked out at 16.875. For the same compound, the “Hypersomnia Severity Index (0-36)” value with DM subject [8] is recorded as 25. Also, the “Owl Lark” value in the data set on DM subject [9] amounted to 36. In addition, the “Beck Depression Inventory (0-39)” value in the data set with DM subject [10] amounted to 3. The “Epworth Sleepiness Scale” value in the data set on DM subject [11] (setting [16]) turned out to be 8.
For the compound `CCOC(=O)c1ncn2c1CN(C)C(=O)c1cc(F)ccc1-2` [flumazenil], the “action of midazolam in gamma 2L deficient mice” value with gamma 2L deficient mice is reported as “reversed”. Moreover, the endozepine-like molecule binding result in data set [12] is “inhibits endozepine-like molecule binding”. For the same compound, the “clinical benefit in idiopathic hypersomnia” value in [13] is listed as “clinical benefit”. Also, the “self reported sleepiness on the Stanford sleepiness scale” value with DM subject 1 [14] is recorded as “reduced sleepiness”. For the same compound, the “time elapsed between visual stimulus and user input” value with DM subject 1 [15] (2.0 mg intravenously administered flumazenil, versus before treatment) is given as “dramatic decrease in time elapsed”. For the same compound, the “lapses in attention (reaction times >500 ms)” value in the data set with DM subject 1 [15] (intravenous flumazenil, 2 different doses incl. 2.0 mg) was “marked reduction in lapses in attention; also recorded: decreased”. The “Epworth Sleepiness Scale” value in the data set with DM subject [11] (DM subject 4, ON flumazenil 12-18 mg sublingual plus 12 mg topical daily, 6 continuous weeks) is given as 5; in the data set with DM subject [11] (setting [16]), 7.
